Values quoted from earlier work, collected in PMC9008720 (Biomedical chromatography : BMC, 2022).

System: GBM tumor
Settings: ref Zalcman et al., 2018

CNC(=O)c1ccc(N2C(=S)N(c3ccc(C#N)c(C(F)(F)F)c3)C(=O)C2(C)C)cc1F [enzalutamide]
GBM tumor growth in nude mice: reduced the GBM tumor growth
